Experimental findings from PubChem BioAssay AID256 (DTP/NCI, 2004) are described below.

This experiment relates to CD2F1 mice, L1210 leukemia ip, survival T/C. Kind of experiment: NCI In Vivo Anticancer Drug Screen. Data for tumor model L1210 Leukemia (intraperitoneal) in CD2F1 (CDF1) mice. The note with it: higher = longer survival. How it is done: The antitumor activity of compounds was measured in mice bearing transplantable tumors. Survival or tumor size were measured and the results are expressed as the measurement made in the treated group (T) divided by the measurement made in the vehicle treated control group (C). The tumor model used in this assay is L1210 Leukemia (intraperitoneal) in CD2F1 (CDF1) mice

Where [1] appears, read: endpoint: mean survival time, dose: 100.0 mg/kg/injection, schedule: Q04DX003 (ip), vehicle: saline with Tween-80.
The mark [2] stands for this setting: endpoint: mean survival time, dose: 100.0 mg/kg/injection, schedule: Q01DX001 (ip), vehicle: saline with Tween-80.
The mark [3] stands for this setting: endpoint: mean survival time, dose: 100.0 mg/kg/injection, schedule: Q01DX009 (ip), vehicle: saline with Tween-80.
Where [4] appears, read: endpoint: mean survival time, dose: 100.0 mg/kg/injection, schedule: Q04DX002 (ip), vehicle: saline with Tween-80.
[5] abbreviates: endpoint: mean survival time, dose: 200.0 mg/kg/injection, schedule: Q01DX001 (ip), vehicle: saline with Tween-80.
The mark [6] stands for this setting: endpoint: mean survival time, dose: 200.0 mg/kg/injection, schedule: Q01DX009 (ip), vehicle: saline with Tween-80.
Setting [7] is: endpoint: mean survival time, dose: 200.0 mg/kg/injection, schedule: Q04DX003 (ip), vehicle: saline with Tween-80.
The mark [8] stands for this setting: endpoint: mean survival time, dose: 400.0 mg/kg/injection, schedule: Q01DX001 (ip), vehicle: saline with Tween-80.
Setting [9] is: endpoint: mean survival time, dose: 400.0 mg/kg/injection, schedule: Q01DX009 (ip), vehicle: saline with Tween-80.
Where [10] appears, read: endpoint: mean survival time, dose: 400.0 mg/kg/injection, schedule: Q04DX002 (ip), vehicle: saline with Tween-80.
The mark [11] stands for this setting: endpoint: mean survival time, dose: 400.0 mg/kg/injection, schedule: Q04DX003 (ip), vehicle: saline with Tween-80.

Several values for one entry are separate records, joined by “and”; a condition that tells them apart may be missing. Identical values can stand only once. Toxic doses and inconclusive results are not listed. Non-standard residues stand in square brackets, D forms with d. Residues, ends and D or L forms follow the SMILES beside them. ξ: configuration not given here. *: point of attachment. ξF = NC(Cc1ccccc1)C(=O)O; Cbz = O=C(OCc1ccccc1)*

In the case of `CCCCC(CC)CNCC(CC)CCCC` (stereo not given), the T/C (endpoint: mean survival time, dose: 50.0 mg/kg/injection, schedule: Q04DX003 (ip), vehicle: saline with Tween-80) is 93 % of control and the T/C under setting [1] was 91 % of control.

Take `O=C(NC(=S)Nc1cc(Cl)ccc1O)c1cccc(Br)c1`: the T/C is, setting by setting: under setting [2], 86 % of control and 89 % of control; under setting [3], 96 % of control and 101 % of control; under setting [4], 89 % of control and 103 % of control; under setting [1], 91 % of control; under setting [5], 86 % of control; under setting [6], 97 % of control and 98 % of control. In addition, the T/C is, setting by setting: (endpoint: mean survival time, dose: 200.0 mg/kg/injection, schedule: Q04DX002 (ip), vehicle: saline with Tween-80) 89 % of control and 100 % of control; under setting [7], 96 % of control; under setting [8], 86 % of control; under setting [9], 116 % of control and 101 % of control; under setting [10], 94 % of control and 95 % of control; under setting [11], 95 % of control.

Consider `FC1(F)C(Cl)=[C]([Hg][C]2=C(Cl)C(F)(F)C(F)(F)C(F)(F)C2(F)F)C(F)(F)C(F)(F)C1(F)F`, for which the T/C runs as follows: (endpoint: mean survival time, dose: 37.5 mg/kg/injection, schedule: Q04DX003 (ip), vehicle: saline) 104 % of control; (endpoint: mean survival time, dose: 75.0 mg/kg/injection, schedule: Q01DX001 (ip), vehicle: saline) 106 % of control; (endpoint: mean survival time, dose: 75.0 mg/kg/injection, schedule: Q04DX003 (ip), vehicle: saline) 97 % of control; (endpoint: mean survival time, dose: 150.0 mg/kg/injection, schedule: Q01DX001 (ip), vehicle: saline) 95 % of control.

On to `C/C(CC(C)C)=N\NC(=O)CNC(=O)c1ccccc1`, for which the T/C runs as follows: under setting [3], 90 % of control; under setting [6], 92 % of control; under setting [9], 96 % of control.

Consider `OC(CF)CF`, for which the T/C runs as follows: (endpoint: mean survival time, dose: 12.5 mg/kg/injection, schedule: Q01DX009 (ip), vehicle: saline) 106 % of control; (endpoint: mean survival time, dose: 25.0 mg/kg/injection, schedule: Q01DX009 (ip), vehicle: saline) 118 % of control.

With `NC(=O)OCCc1c2ccccc2nc2ccccc12`, the T/C was 96 % of control (endpoint: mean survival time, dose: 25.0 mg/kg/injection, schedule: Q04DX002 (ip), vehicle: other); 93 % of control (endpoint: mean survival time, dose: 50.0 mg/kg/injection, schedule: Q04DX002 (ip), vehicle: other); 93 % of control (endpoint: mean survival time, dose: 100.0 mg/kg/injection, schedule: Q04DX002 (ip), vehicle: other); 105 % of control under setting [4]; 105 % of control under setting [10].

Consider `NC(=O)C(Cc1ccccc1)NC(=O)CNC(=O)CNC(=O)OCc1ccccc1` (stereo not drawn) (Cbz-Gly-Gly-[ξF]-NH2), for which the T/C reads like this: under setting [1], 97 % of control; under setting [7], 96 % of control; under setting [11], 99 % of control.

For the compound `COc1cc2c(c(OC)c1OC)-c1ccc(OC)c(=O)cc1[C@@H](NC(C)=O)CC2`, the T/C runs as follows: (endpoint: mean survival time, dose: 0.02 mg/kg/injection, schedule: Q01DX009 (ip), vehicle: saline) 117 % of control; (endpoint: mean survival time, dose: 0.03 mg/kg/injection, schedule: Q01DX009 (ip), vehicle: water) 93 % of control; (endpoint: mean survival time, dose: 0.04 mg/kg/injection, schedule: Q01DX009 (ip), vehicle: saline) 103 % of control; (endpoint: mean survival time, dose: 0.05 mg/kg/injection, schedule: Q01DX009 (ip), vehicle: saline) 102 % of control; (endpoint: mean survival time, dose: 0.06 mg/kg/injection, schedule: Q01DX005 (ip), vehicle: Klucel (hydroxypropylcellulose) (HPC)) 103 % of control; (endpoint: mean survival time, dose: 0.08 mg/kg/injection, schedule: Q01DX009 (ip), vehicle: saline) 105 % of control. The T/C (endpoint: mean survival time, dose: 0.1 mg/kg/injection, schedule: Q01DX009 (ip), vehicle: saline) was 100 % of control; the T/C (endpoint: mean survival time, dose: 0.13 mg/kg/injection, schedule: Q01DX005 (ip), vehicle: Klucel (hydroxypropylcellulose) (HPC)) is 97 % of control; the T/C (endpoint: mean survival time, dose: 0.13 mg/kg/injection, schedule: Q01DX005 (ip), vehicle: water) is 117 % of control; the T/C (endpoint: mean survival time, dose: 0.16 mg/kg/injection, schedule: Q01DX009 (ip), vehicle: saline) is 111 % of control; the T/C (endpoint: mean survival time, dose: 0.19 mg/kg/injection, schedule: Q01DX009 (ip), vehicle: saline) was 104 % of control; the T/C (endpoint: mean survival time, dose: 0.25 mg/kg/injection, schedule: Q01DX005 (ip), vehicle: Klucel (hydroxypropylcellulose) (HPC)) is 114 % of control. Besides, the T/C was 122 % of control (endpoint: mean survival time, dose: 0.25 mg/kg/injection, schedule: Q01DX005 (ip), vehicle: water); 111 % of control (endpoint: mean survival time, dose: 0.35 mg/kg/injection, schedule: Q04DX004 (ip), vehicle: saline); 111 % of control (endpoint: mean survival time, dose: 0.38 mg/kg/injection, schedule: Q01DX009 (ip), vehicle: saline); 123 % of control (endpoint: mean survival time, dose: 0.5 mg/kg/injection, schedule: Q01DX005 (ip), vehicle: Klucel (hydroxypropylcellulose) (HPC)); 112 % of control (endpoint: mean survival time, dose: 0.54 mg/kg/injection, schedule: Q04DX004 (ip), vehicle: saline); 118 % of control and 111 % of control (endpoint: mean survival time, dose: 0.75 mg/kg/injection, schedule: Q01DX009 (ip), vehicle: saline). Besides, the T/C (endpoint: mean survival time, dose: 0.8 mg/kg/injection, schedule: Q04DX004 (ip), vehicle: saline) is 115 % of control; the T/C (endpoint: mean survival time, dose: 1.2 mg/kg/injection, schedule: Q04DX004 (ip), vehicle: saline) was 122 % of control; the T/C (endpoint: median survival time, dose: 0.02 mg/kg/injection, schedule: Q01DX009 (ip), vehicle: saline) is 88 % of control and 100 % of control; the T/C (endpoint: median survival time, dose: 0.04 mg/kg/injection, schedule: Q01DX009 (ip), vehicle: saline) was 100 % of control; the T/C (endpoint: median survival time, dose: 0.08 mg/kg/injection, schedule: Q01DX009 (ip), vehicle: saline) was 100 % of control and 105 % of control; the T/C (endpoint: median survival time, dose: 0.13 mg/kg/injection, schedule: Q01DX005 (ip), vehicle: saline) was 111 % of control. Also, the T/C is, setting by setting: (endpoint: median survival time, dose: 0.16 mg/kg/injection, schedule: Q01DX009 (ip), vehicle: saline) 114 % of control and 111 % of control; (endpoint: median survival time, dose: 0.25 mg/kg/injection, schedule: Q01DX005 (ip), vehicle: saline) 123 % of control; (endpoint: median survival time, dose: 1.0 mg/kg/injection, schedule: Q01DX005 (ip), vehicle: saline) 164 % of control; (endpoint: median survival time, dose: 2.0 mg/kg/injection, schedule: Q01DX005 (ip), vehicle: saline) 111 % of control.

With `CCOC(=O)c1c[nH]c2cc(OCC3CC3)c(OCC3CC3)cc2c1=O`, the T/C reads like this: under setting [1], 95 % of control; under setting [7], 95 % of control; under setting [11], 93 % of control.

`CC(=O)OCC1OC(N2C(=O)/C(=C/c3ccc4ccccc4c3)SC2=S)C(OC(C)=O)C(OC(C)=O)C1OC(C)=O` (stereo not given): the T/C is, setting by setting: (endpoint: mean survival time, dose: 3.13 mg/kg/injection, schedule: Q01DX005 (ip), vehicle: distilled water + Tween-80) 88 % of control; (endpoint: mean survival time, dose: 6.25 mg/kg/injection, schedule: Q01DX005 (ip), vehicle: distilled water + Tween-80) 94 % of control; (endpoint: mean survival time, dose: 12.5 mg/kg/injection, schedule: Q01DX005 (ip), vehicle: distilled water + Tween-80) 96 % of control; (endpoint: mean survival time, dose: 25.0 mg/kg/injection, schedule: Q01DX005 (ip), vehicle: distilled water + Tween-80) 98 % of control; (endpoint: mean survival time, dose: 50.0 mg/kg/injection, schedule: Q01DX005 (ip), vehicle: distilled water + Tween-80) 100 % of control.

`C1CCC(N=C(NC2CCCCC2)NC2CCCCC2)CC1`: the T/C was 109 % of control under setting [1] and 100 % of control under setting [7].

With `CCOP(=O)(OCC)C(C(C)C)N(C)C` (stereo not given), the T/C runs as follows: under setting [2], 103 % of control; under setting [5], 101 % of control; under setting [8], 98 % of control.

In the case of `c1ccc2c(c1)-c1nc3ccccc3cc1CC21CCCC1`, the T/C is 98 % of control under setting [2], 98 % of control under setting [5] and 93 % of control under setting [8].

As for `CC12CCC(=O)C(I)(I)C1=CCCC2=O` (stereo not given), the T/C is 91 % of control under setting [2], 88 % of control under setting [3], 88 % of control under setting [6] and 87 % of control under setting [9].

`COc1cc(C(=O)N/N=C/c2ccc(N(C)C)cc2)cc(OC)c1OC`: the T/C under setting [3] was 119 % of control and the T/C under setting [6] is 98 % of control.

As to `CCOP(=S)(OCC)Oc1cccc(NC(=O)N(C)C)c1`, the T/C reads like this: under setting [1], 96 % of control; under setting [7], 91 % of control; under setting [11], 99 % of control.

Regarding `CC1(CCOCc2ccccc2)NC(=O)NC1=O` (stereo not given), the T/C under setting [3] is 95 % of control; the T/C under setting [1] was 97 % of control; the T/C under setting [6] is 95 % of control; the T/C under setting [7] was 98 % of control; the T/C under setting [9] is 98 % of control; the T/C under setting [11] is 98 % of control.
